Source: ChEMBL document CHEMBL1201862, “PubChem BioAssay data set” (2004)
One block for each compound: values may come before it. Calls of active or inactive are those of the source.

How the values were obtained:
[1] = target: T1, ATP-dependent translocase ABCB1 (Homo sapiens, UniProt P08183); assay: ABCG2 efflux pump inhibitor potency, dose response, Ig-MXP3 cells, JC-1, flow cytometry, set 2 (AID 504566); assay type: functional; conditions: read-out: EC50_MICROM_;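 note: flow cytometry median green fluorescence of retained JC-1 dye; potency of efflux pump inhibition measured as rising substrate retention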
[2] = target: T1, ATP-dependent translocase ABCB1; assay: ABCB1 efflux inhibitor potency, dose response, Jurkat-DNR cells, JC-1, flow cytometry, set 2 (AID 504569); assay type: functional; conditions: read-out: EC50_MICROM_;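 note: potency of pump inhibitors that raise cellular JC-1 green fluorescence up to the nicardipine level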
[3] = ARNT/TACC3 interaction disruptors, potency, confirmation, biochemical, AlphaScreen, cherry-picked samples (AID 651703); assay type: functional, Homo sapiens;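 note: His-tagged ARNT PAS-B domain paired with GST-TACC3 E629A dimer coactivator fragment; potency of inhibitors that break up the complex and lower AlphaScreen signal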
[4] = target: T2, Corticotropin-releasing factor receptor 2/Corticotropin-releasing factor-binding protein (Homo sapiens, UniProt P24387+Q13324); assay: Dose Response confirmation of uHTS hits for small molecule antagonists of the CRF-binding protein and CRF-R2 receptor complex.; assay type: functional; conditions: read-out: IC50_Mean
T2 sequence (Q13324 whole entry): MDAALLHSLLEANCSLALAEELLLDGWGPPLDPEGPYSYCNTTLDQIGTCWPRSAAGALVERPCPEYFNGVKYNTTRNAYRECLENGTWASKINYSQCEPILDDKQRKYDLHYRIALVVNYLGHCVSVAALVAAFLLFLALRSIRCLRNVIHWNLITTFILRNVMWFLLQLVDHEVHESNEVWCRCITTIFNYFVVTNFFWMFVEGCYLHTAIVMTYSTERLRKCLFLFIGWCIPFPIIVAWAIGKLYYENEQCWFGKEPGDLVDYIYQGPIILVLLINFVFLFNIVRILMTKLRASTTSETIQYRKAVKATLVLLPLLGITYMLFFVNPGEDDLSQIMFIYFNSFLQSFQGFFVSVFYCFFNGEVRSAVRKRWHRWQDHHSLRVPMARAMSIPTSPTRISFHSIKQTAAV
T2 sequence (P24387 whole entry): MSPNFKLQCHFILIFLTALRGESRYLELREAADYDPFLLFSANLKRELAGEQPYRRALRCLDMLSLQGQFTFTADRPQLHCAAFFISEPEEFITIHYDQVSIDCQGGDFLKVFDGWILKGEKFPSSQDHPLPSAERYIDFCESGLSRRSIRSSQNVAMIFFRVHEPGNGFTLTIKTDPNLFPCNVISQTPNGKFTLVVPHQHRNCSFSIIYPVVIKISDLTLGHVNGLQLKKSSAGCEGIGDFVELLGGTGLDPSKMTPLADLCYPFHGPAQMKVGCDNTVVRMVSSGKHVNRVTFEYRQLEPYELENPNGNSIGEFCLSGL

[5] = CRF-BP/CRF-R2 complex antagonists, dose response, cell-based, uHTS hits, 384-well (AID 651639); assay type: functional, Homo sapiens; conditions: read-out: IC50_Mean
[6] = target: T2, Corticotropin-releasing factor receptor 2/Corticotropin-releasing factor-binding protein; assay: activators of CRF receptor 2 with binding protein – uHTS hits, confirmation (AID 602473); assay type: functional; conditions: read-out: EC50_Mean
Interleukin-8 = target: T3, Interleukin-8 (Homo sapiens, UniProt P10145); assay: Dose Response confirmation of uHTS small molecule hits for cystic fibrosis induced NFkb Inhibitors in a PAF-induced IL8 counterscreen.; assay type: functional; conditions: read-out: IC50_Mean
T3 sequence (P10145 whole entry): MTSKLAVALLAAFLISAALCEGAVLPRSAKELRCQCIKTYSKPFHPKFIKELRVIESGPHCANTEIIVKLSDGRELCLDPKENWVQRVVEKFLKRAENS

[7] = target: T4, Apoptotic protease-activating factor 1 (Homo sapiens, UniProt O14727); assay: SAR analysis of small molecule Activators of Apaf-1 in a Fluorescent assay.; assay type: functional; conditions: read-out: EC50_Mean;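 note: caspase-3 cleavage of fluorogenic Rh110 DEVD substrate downstream of apoptosome activation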
T4 sequence (O14727 whole entry): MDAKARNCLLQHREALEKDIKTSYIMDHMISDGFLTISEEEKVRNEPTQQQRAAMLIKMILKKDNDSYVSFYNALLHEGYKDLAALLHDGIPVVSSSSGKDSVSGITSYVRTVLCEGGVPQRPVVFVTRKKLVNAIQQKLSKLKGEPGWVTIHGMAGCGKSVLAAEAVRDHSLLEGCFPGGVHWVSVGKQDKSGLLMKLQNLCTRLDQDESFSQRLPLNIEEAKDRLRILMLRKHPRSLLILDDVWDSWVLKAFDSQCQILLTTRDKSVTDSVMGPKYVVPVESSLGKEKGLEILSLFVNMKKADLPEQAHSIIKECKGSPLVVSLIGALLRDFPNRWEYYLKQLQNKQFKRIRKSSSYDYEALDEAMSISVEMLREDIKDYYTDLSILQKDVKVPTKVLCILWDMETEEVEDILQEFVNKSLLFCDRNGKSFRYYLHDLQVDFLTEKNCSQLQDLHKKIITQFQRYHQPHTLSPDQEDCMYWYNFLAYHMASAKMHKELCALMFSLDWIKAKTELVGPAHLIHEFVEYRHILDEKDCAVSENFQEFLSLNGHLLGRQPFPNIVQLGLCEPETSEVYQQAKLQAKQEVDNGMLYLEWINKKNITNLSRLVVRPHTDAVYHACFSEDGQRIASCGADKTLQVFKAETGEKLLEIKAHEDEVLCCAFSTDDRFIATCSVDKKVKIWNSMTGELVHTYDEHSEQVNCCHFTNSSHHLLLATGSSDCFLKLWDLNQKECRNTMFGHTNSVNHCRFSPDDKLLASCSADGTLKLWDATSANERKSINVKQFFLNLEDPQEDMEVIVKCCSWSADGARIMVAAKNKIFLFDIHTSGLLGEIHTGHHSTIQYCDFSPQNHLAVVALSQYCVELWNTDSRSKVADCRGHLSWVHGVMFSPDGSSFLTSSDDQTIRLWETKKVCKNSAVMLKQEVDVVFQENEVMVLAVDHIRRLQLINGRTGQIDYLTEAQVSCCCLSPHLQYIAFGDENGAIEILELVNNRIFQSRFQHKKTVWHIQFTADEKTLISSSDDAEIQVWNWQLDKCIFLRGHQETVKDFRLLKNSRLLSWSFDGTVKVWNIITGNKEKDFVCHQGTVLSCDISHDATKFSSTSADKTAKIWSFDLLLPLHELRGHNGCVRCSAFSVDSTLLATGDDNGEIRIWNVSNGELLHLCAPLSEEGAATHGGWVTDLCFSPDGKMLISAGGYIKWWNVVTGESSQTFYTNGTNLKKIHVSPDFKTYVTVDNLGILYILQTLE

T1 sequence (P08183 whole entry): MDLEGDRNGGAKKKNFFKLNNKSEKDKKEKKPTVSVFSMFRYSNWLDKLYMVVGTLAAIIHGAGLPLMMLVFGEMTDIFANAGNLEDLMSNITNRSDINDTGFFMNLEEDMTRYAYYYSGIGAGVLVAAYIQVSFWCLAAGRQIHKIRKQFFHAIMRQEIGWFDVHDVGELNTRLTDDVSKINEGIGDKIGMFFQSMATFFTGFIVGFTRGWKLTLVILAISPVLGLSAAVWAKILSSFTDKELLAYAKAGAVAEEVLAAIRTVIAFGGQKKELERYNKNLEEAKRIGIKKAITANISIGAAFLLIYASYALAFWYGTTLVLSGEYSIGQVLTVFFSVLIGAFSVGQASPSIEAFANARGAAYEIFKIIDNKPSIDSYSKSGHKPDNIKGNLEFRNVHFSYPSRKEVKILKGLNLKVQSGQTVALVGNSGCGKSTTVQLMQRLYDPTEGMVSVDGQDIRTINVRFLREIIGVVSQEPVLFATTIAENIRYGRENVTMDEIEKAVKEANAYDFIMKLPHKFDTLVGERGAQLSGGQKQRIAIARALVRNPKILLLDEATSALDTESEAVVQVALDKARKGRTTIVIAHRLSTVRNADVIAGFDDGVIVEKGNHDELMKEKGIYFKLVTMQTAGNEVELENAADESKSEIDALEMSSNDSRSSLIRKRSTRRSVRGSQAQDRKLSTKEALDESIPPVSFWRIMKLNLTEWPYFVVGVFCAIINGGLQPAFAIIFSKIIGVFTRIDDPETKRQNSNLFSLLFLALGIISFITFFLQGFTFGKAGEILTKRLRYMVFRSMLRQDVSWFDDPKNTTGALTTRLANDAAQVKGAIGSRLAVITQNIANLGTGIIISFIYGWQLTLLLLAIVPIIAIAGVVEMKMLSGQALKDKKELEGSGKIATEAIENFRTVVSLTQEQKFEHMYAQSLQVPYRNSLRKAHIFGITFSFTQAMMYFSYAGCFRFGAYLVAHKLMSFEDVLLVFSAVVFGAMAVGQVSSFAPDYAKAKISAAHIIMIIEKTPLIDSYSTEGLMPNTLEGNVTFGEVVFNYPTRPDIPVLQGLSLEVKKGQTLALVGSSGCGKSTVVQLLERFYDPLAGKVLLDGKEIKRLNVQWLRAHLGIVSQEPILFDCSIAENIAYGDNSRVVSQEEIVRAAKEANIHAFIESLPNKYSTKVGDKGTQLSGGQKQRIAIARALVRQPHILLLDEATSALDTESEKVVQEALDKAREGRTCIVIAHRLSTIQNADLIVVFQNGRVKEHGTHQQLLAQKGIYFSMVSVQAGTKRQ

EC50 [1]: 7.42 µM (active) | EC50 [2]: 3.62 µM (active)
SMILES: O=C(Cc1ccccc1)N1CCN(c2cc(-c3ccccc3)nc3cc(-c4cccc(Cl)c4)nn23)CC1

SMILES: COc1cccc(/C=N/NC(=O)CNC(=O)c2cccnc2)c1O
AC50 [3]: 81.1 µM (active)

IC50 [4]: 3.6 µM (active) | IC50 [5]: 4.28 µM (active) | EC50 [6]: > 53 µM (inactive)
SMILES: CC(C)N(C(=O)[C@H]1C[C@H](CC(=O)NCCC2=CCCCC2)C(=O)N2CCc3c([nH]c4ccc(Cl)cc34)[C@]12C)C(C)C

IC50 (Interleukin-8): 9.82 µM (active)
SMILES: CC(C)C[C@@H](CN1CCCC1CN1C(=S)NC[C@@H]1Cc1ccc(O)cc1)N1C[C@H](Cc2ccc(O)cc2)N(CCc2ccccc2)C1=S (stereo partly drawn)

EC50 [7]: > 100 µM (inactive)
SMILES: CCOc1ccccc1NC(=O)CCS(=O)(=O)c1cc2c(cc1Cl)NC(=O)CO2
